Experimental data: patent US20260274895A1, “DE NOVO DESIGNED MEMBRANE-TRAVERSING AND ORALLY BIOAVAILABLE MACROCYCLES” (UNIVERSITY OF WASHINGTON, priority 2022, published 2026)
Read-outs that look alike come from different tables or passages of the source. Where a SMILES comes first, the peptide text is derived from it. [ ]: non-standard residue; d: D form. dNMeI = CC[C@@H](C)[C@@H](NC)C(=O)O; NMeL = CN[C@@H](CC(C)C)C(=O)O

Experiments:
[1] = mouse, in vivo, iv
[2] = PAMPA
[3] = mouse, in vivo
in vivo = conditions: male, Swiss Albino, mouse; for level at 0.08 h / level at 0.25 h / level at 0.5 h / level at 1 h / level at 3 h / level at 5 h / level at 8 h / level at 24 h: Plasma concentration

- half-life [1]: 5.58 h
- PAMPA_Papp_Avg (apparent permeability) [2]: 1.48 ×10⁻⁶ cm/s
- F ([3]; 10 mg/kg): 40.06%
- AUC0-inf ([3]; iv, 1 mg/kg): 7187.15 ng·h/mL
- AUC0-last ([3]; iv, 1 mg/kg): 6965.11 ng·h/mL
- AUCExtra ([3]; iv, 1 mg/kg): 3.09%
- C0 ([3]; iv, 1 mg/kg): 3957.56 ng/mL
- Cl ([3]; iv, 1 mg/kg): 2.32 mL/min/kg
- MRT0-last ([3]; iv, 1 mg/kg): 4.64 h
- T½ ([3]; iv, 1 mg/kg): 5.58 h
- Vd ([3]; iv, 1 mg/kg): 1.12 L/kg
- AUC0-inf ([3]; po, 10 mg/kg): 28793.58 ng·h/mL
- AUC0-last ([3]; po, 10 mg/kg): 28242.38 ng·h/mL
- AUCExtra ([3]; po, 10 mg/kg): 1.91%
- MRT0-last ([3]; po, 10 mg/kg): 6.32 h
- AUC0-inf ([3]; sc, 5 mg/kg): 3047.15 ng·h/mL
- AUC0-last ([3]; sc, 5 mg/kg): 2122.81 ng·h/mL
- AUCExtra ([3]; sc, 5 mg/kg): 30.33%
- MRT0-last ([3]; sc, 5 mg/kg): 10.71 h
- level at 0.08 h (in vivo; iv, 1 mg/kg): 3750 ng/mL
- level at 0.25 h (in vivo; iv, 1 mg/kg): 3350 ng/mL
- level at 0.5 h (in vivo; iv, 1 mg/kg): 2010 ng/mL
- level at 1 h (in vivo; iv, 1 mg/kg): 1140 ng/mL
- level at 3 h (in vivo; iv, 1 mg/kg): 512 ng/mL
- level at 5 h (in vivo; iv, 1 mg/kg): 267 ng/mL
- level at 8 h (in vivo; iv, 1 mg/kg): 235 ng/mL
- level at 24 h (in vivo; iv, 1 mg/kg): 27.6 ng/mL
- level at 0.08 h (in vivo; po, 10 mg/kg): 69.6 ng/mL
- level at 0.25 h (in vivo; po, 10 mg/kg): 750 ng/mL
- level at 0.5 h (in vivo; po, 10 mg/kg): 2520 ng/mL
- level at 1 h (in vivo; po, 10 mg/kg): 2960 ng/mL
- level at 3 h (in vivo; po, 10 mg/kg): 3500 ng/mL
- level at 5 h (in vivo; po, 10 mg/kg): 2540 ng/mL
- level at 8 h (in vivo; po, 10 mg/kg): 1480 ng/mL
- level at 24 h (in vivo; po, 10 mg/kg): 95 ng/mL
- bioavailability (in vivo; sc, 5 mg/kg): 8.48%
- level at 0.08 h (in vivo; sc, 5 mg/kg): 12.4 ng/mL
- level at 1 h (in vivo; sc, 5 mg/kg): 44.1 ng/mL
- level at 3 h (in vivo; sc, 5 mg/kg): 128 ng/mL
- level at 5 h (in vivo; sc, 5 mg/kg): 148 ng/mL
- level at 8 h (in vivo; sc, 5 mg/kg): 114 ng/mL
- level at 24 h (in vivo; sc, 5 mg/kg): 57.6 ng/mL
Structure (SMILES): CC[C@@H](C)[C@H]1NC(=O)[C@H]([C@@H](C)CC)NC(=O)[C@H](CC(C)C)N(C)C(=O)[C@H]2CCCN2C(=O)[C@@H]([C@H](C)CC)NC(=O)[C@@H]([C@H](C)CC)N(C)C(=O)[C@H](CC(C)C)NC(=O)[C@H]2CCCN2C(=O)[C@@H]2CCCN2C(=O)[C@H](C(C)C)NC(=O)[C@H]2CCCN2C1=O [Design D11.3, VPpL*iip*LIip] (cyclo(I[dI][dP]VP[dP]L[dNMeI][dI][dP][NMeL]))
